This series can be described thus: recombinant UMI read abundance after kanamycin selection (control-corrected) (log10(CPM+1)); higher = more efficient recombination; extreme values may be limits of the assay; sequences stand for … in AGTGCAGAGAAAATCGGCCAGTTTTCTCTGCCTGCAGTCCGCATGCCGTGGGACCCCTTGGGTTCTAACCTGTTGCCTAGATTTATGCAGCGGACTGCCTTTCTCCCAAAGTGATAAACCGG…AGGTTGGTTTCACT; site = the 11-nt donor. Summed up: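 For the IS621 bridge recombinase, a pooled Escherichia coli screen tested donor and donor-binding-loop pairs. Cells received the pair library together with a target plasmid encoding a fixed target and T7-inducible recombinase, then went onto IPTG (0.07 mM) plus kanamycin or unselected plates in duplicate. After PCR across the donor–target junction and sequencing, recombinant UMI counts were normalized to CPM, averaged, and scaled by control-derived factors. Each value is given as log10(CPM+1).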
Consider “CAAGCAGCATGGACCGGTTTTCCCGGTAATCCGTATTTGGT (site CAAGCAGCTAC)”, for which the “recombinant UMI read abundance (log10)” value amounted to 1.73.
For “CAAGCAGCATGGACCGGTTTTCCCGGTAATCCGTATTTGGT (site CAAGCAGCTAG)” the value was 1.5; for “CAAGCAGCATGGACCGGTTTTCCCGGTAATCCGTATTTGGT (site CAAGCAGCTAT)”, 1.85; for “CAAGCGACATGGACCGGTTTTCCCGGTAATCCGTATTTGTG (site CAAGCGACTCA)”, 1.19.
Consider “CAAGCGACATGGACCGGTTTTCCCGGTAATCCGTATTTGTG (site CAAGCGCCTCA)”, for which the “recombinant UMI read abundance (log10)” value was found to be 0.00397.
“CAAGCGACATGGACCGGTTTTCCCGGTAATCCGTATTTGTG (site CAAGCGGCTCA)”: the “recombinant UMI read abundance (log10)” value is 1.2.
“CAAGCGACATGGACCGGTTTTCCCGGTAATCCGTATTTGTG (site CAAGCGTCTCA)”: the “recombinant UMI read abundance (log10)” value was 0.756.
On to “CAAGCTCCATGGACCGGTTTTCCCGGTAATCCGTATTTGTG (site CAAGCACCTCA)”, for which the “recombinant UMI read abundance (log10)” value is 0.0218.
On to “CAAGCTCCATGGACCGGTTTTCCCGGTAATCCGTATTTGTG (site CAAGCCCCTCA)”, for which the “recombinant UMI read abundance (log10)” value stood at 0.0101.
Consider “CAAGCTCCATGGACCGGTTTTCCCGGTAATCCGTATTTGTG (site CAAGCGCCTCA)”, for which the “recombinant UMI read abundance (log10)” value came out at 0.0257.
For the sequence “CAAGCTCCATGGACCGGTTTTCCCGGTAATCCGTATTTGTG (site CAAGCTCCTCA)”, the “recombinant UMI read abundance (log10)” value was 0.0252.
In the case of “CAAGGCCCATGGACCGGTTTTCCCGGTAATCCGTATTTGGC (site CAAGGCCCTGC)”, the “recombinant UMI read abundance (log10)” value worked out at 2.11.
As for “CAAGGTGCATGGACCGGTTTTCCCGGTAATCCGTATTTGTT (site CAAGGTGCTAA)”, the “recombinant UMI read abundance (log10)” value amounted to 2.59.
For “CAAGTAACATGGACCGGTTTTCCCGGTAATCCGTATTTGAC (site CAAGTAACTGT)” the value was 3.09; for “CAAGTAACATGGACCGGTTTTCCCGGTAATCCGTATTTGAC (site CTAGTATCTGT)”, 0.497; for “CAAGTATCATGGACCGGTTTTCCCGGTAATCCGTATTTGTC (site CAAGTATCTGA)”, 2.66.
For “CAAGTATCATGGACCGGTTTTCCCGGTAATCCGTATTTGTC (site CTAGTATCTGT)” the value was 0; for “CAAGTCACATGGACCGGTTTTCCCGGTAATCCGTATTTGGC (site CAAGTCACTAC)”, 0.739; for “CAAGTCACATGGACCGGTTTTCCCGGTAATCCGTATTTGGC (site CAAGTCACTCC)”, 0.402.
“CAAGTCACATGGACCGGTTTTCCCGGTAATCCGTATTTGGC (site CAAGTCACTGC)”: the “recombinant UMI read abundance (log10)” value came to 2.99.
With “CAAGTCACATGGACCGGTTTTCCCGGTAATCCGTATTTGGC (site CAAGTCACTTC)”, the “recombinant UMI read abundance (log10)” value turned out to be 0.596.
On to “CAAGTCTCATGGACCGGTTTTCCCGGTAATCCGTATTTGAC (site CAAGTCTCTGT)”, for which the “recombinant UMI read abundance (log10)” value came out at 3.08.
On to “CAAGTCTCATGGACCGGTTTTCCCGGTAATCCGTATTTGAC (site CTAGTATCTGT)”, for which the “recombinant UMI read abundance (log10)” value is 0.00697.
For “CAATCAACATGGACCGGTTTTCCCGGTAATCCGTATTTGTG (site CAATCAACTCA)” the value was 0.737; for “CAATCCCCATGGACCGGTTTTCCCGGTAATCCGTATTTGCT (site CAATACCCTAG)”, 1.5.
In the case of “CAATCCCCATGGACCGGTTTTCCCGGTAATCCGTATTTGCT (site CAATCCCCTAG)”, the “recombinant UMI read abundance (log10)” value is 0.977.
Take “CAATCCCCATGGACCGGTTTTCCCGGTAATCCGTATTTGCT (site CAATGCCCTAG)”: the “recombinant UMI read abundance (log10)” value was found to be 0.
“CAATCCCCATGGACCGGTTTTCCCGGTAATCCGTATTTGCT (site CAATTCCCTAG)”: the “recombinant UMI read abundance (log10)” value was found to be 1.78.
“CAATCGCCATGGACCGGTTTTCCCGGTAATCCGTATTTGTG (site CAAACGCCTCA)”: the “recombinant UMI read abundance (log10)” value stood at 0.0185.
For the sequence “CAATCGCCATGGACCGGTTTTCCCGGTAATCCGTATTTGTG (site CAACCGCCTCA)”, the “recombinant UMI read abundance (log10)” value worked out at 0.0282.
As to “CAATCGCCATGGACCGGTTTTCCCGGTAATCCGTATTTGTG (site CAAGCGCCTCA)”, the “recombinant UMI read abundance (log10)” value was determined as 0.0173.
On to “CAATCGCCATGGACCGGTTTTCCCGGTAATCCGTATTTGTG (site CAATCGCCTCA)”, for which the “recombinant UMI read abundance (log10)” value amounted to 0.22.
Consider “CAATCGTCATGGACCGGTTTTCCCGGTAATCCGTATTTGCT (site CAATCGTCTAG)”, for which the “recombinant UMI read abundance (log10)” value was found to be 2.84.
For “CAATCGTCATGGACCGGTTTTCCCGGTAATCCGTATTTGCT (site CGATCATCTAG)”, the “recombinant UMI read abundance (log10)” value came to 0.
Regarding “CAATCTACATGGACCGGTTTTCCCGGTAATCCGTATTTGTC (site CAATCTACTGA)”, the “recombinant UMI read abundance (log10)” value came to 2.28.
As for “CAATGGCCATGGACCGGTTTTCCCGGTAATCCGTATTTGCA (site AAATGGCCTTG)”, the “recombinant UMI read abundance (log10)” value stood at 0.
For the sequence “CAATGGCCATGGACCGGTTTTCCCGGTAATCCGTATTTGCA (site CAATGGCCTTG)”, the “recombinant UMI read abundance (log10)” value stood at 0.253.
As to “CAATGGCCATGGACCGGTTTTCCCGGTAATCCGTATTTGCA (site GAATGGCCTTG)”, the “recombinant UMI read abundance (log10)” value is 0.
As to “CAATGGCCATGGACCGGTTTTCCCGGTAATCCGTATTTGCA (site TAATGGCCTTG)”, the “recombinant UMI read abundance (log10)” value was 0.198.
For “CAATTACCATGGACCGGTTTTCCCGGTAATCCGTATTTGCT (site CAATTACCTAG)”, the “recombinant UMI read abundance (log10)” value amounted to 0.
For “CAATTACCATGGACCGGTTTTCCCGGTAATCCGTATTTGCT (site CAATTCCCTAG)”, the “recombinant UMI read abundance (log10)” value is 0.
For the sequence “CAATTACCATGGACCGGTTTTCCCGGTAATCCGTATTTGCT (site CAATTGCCTAG)”, the “recombinant UMI read abundance (log10)” value amounted to 0.
Turning to “CAATTACCATGGACCGGTTTTCCCGGTAATCCGTATTTGCT (site CAATTTCCTAG)”, the “recombinant UMI read abundance (log10)” value came to 0.
As for “CAATTCCCATGGACCGGTTTTCCCGGTAATCCGTATTTGTT (site CAATTCCCTAA)”, the figure is 1.71.
On to “CAATTCCCATGGACCGGTTTTCCCGGTAATCCGTATTTGTT (site CAATTCCCTAC)”, for which the “recombinant UMI read abundance (log10)” value is 0.942.
Regarding “CAATTCCCATGGACCGGTTTTCCCGGTAATCCGTATTTGTT (site CAATTCCCTAG)”, the “recombinant UMI read abundance (log10)” value was determined as 1.41.
In the case of “CAATTCCCATGGACCGGTTTTCCCGGTAATCCGTATTTGTT (site CAATTCCCTAT)”, the “recombinant UMI read abundance (log10)” value came out at 1.15.
On to “CAATTGACATGGACCGGTTTTCCCGGTAATCCGTATTTGCG (site CAATTGACTCG)”, for which the “recombinant UMI read abundance (log10)” value was 2.58.
As for “CAATTGGCATGGACCGGTTTTCCCGGTAATCCGTATTTGGA (site CAATTGGCTTC)”, the figure is 0.902; as for “CAATTGGCATGGACCGGTTTTCCCGGTAATCCGTATTTGGA (site CACTTGGCTTC)”, 0.0126.
For “CAATTGGCATGGACCGGTTTTCCCGGTAATCCGTATTTGGA (site CAGTTGGCTTC)” the value was 0.585.
As for “CAATTGGCATGGACCGGTTTTCCCGGTAATCCGTATTTGGA (site CATTTGGCTTC)”, the “recombinant UMI read abundance (log10)” value amounted to 0.313.
In the case of “CACACAACATGGACCGGTTTTCCCGGTAATCCGTATTTGAA (site CACACAACTTT)”, the “recombinant UMI read abundance (log10)” value was found to be 1.84.
As for “CACACGGCATGGACCGGTTTTCCCGGTAATCCGTATTTGAG (site CACACGGCTCT)”, the “recombinant UMI read abundance (log10)” value is 1.83.
For “CACAGGGCATGGACCGGTTTTCCCGGTAATCCGTATTTGAG (site CACAGGGCTCT)” the value was 1.97.
In the case of “CACATATCATGGACCGGTTTTCCCGGTAATCCGTATTTGTC (site CACATATCTGA)”, the “recombinant UMI read abundance (log10)” value is 1.5.
For “CACATATCATGGACCGGTTTTCCCGGTAATCCGTATTTGTC (site CCCATATCTGA)” the value was 0.724; for “CACATATCATGGACCGGTTTTCCCGGTAATCCGTATTTGTC (site CGCATATCTGA)”, 0.92.
For the sequence “CACATATCATGGACCGGTTTTCCCGGTAATCCGTATTTGTC (site CTCATATCTGA)”, the “recombinant UMI read abundance (log10)” value came out at 0.
Regarding “CACATCCCATGGACCGGTTTTCCCGGTAATCCGTATTTGCA (site CACATCCCTTG)”, the “recombinant UMI read abundance (log10)” value was 2.
As to “CACCGTTCATGGACCGGTTTTCCCGGTAATCCGTATTTGTG (site CACCGTTCTCA)”, the “recombinant UMI read abundance (log10)” value worked out at 1.9.
As for “CACCTGCCATGGACCGGTTTTCCCGGTAATCCGTATTTGAC (site CACCTGCCTGT)”, the figure is 0.
As for “CACGCCCCATGGACCGGTTTTCCCGGTAATCCGTATTTGTT (site CACGACCCTAA)”, the “recombinant UMI read abundance (log10)” value came out at 0.0224.
For the sequence “CACGCCCCATGGACCGGTTTTCCCGGTAATCCGTATTTGTT (site CACGCCCCTAA)”, the “recombinant UMI read abundance (log10)” value turned out to be 0.348.
In the case of “CACGCCCCATGGACCGGTTTTCCCGGTAATCCGTATTTGTT (site CACGGCCCTAA)”, the “recombinant UMI read abundance (log10)” value came out at 0.
As for “CACGCCCCATGGACCGGTTTTCCCGGTAATCCGTATTTGTT (site CACGTCCCTAA)”, the figure is 0.0223.
Regarding “CACGCCTCATGGACCGGTTTTCCCGGTAATCCGTATTTGCC (site CACACCTCTGG)”, the “recombinant UMI read abundance (log10)” value is 2.73.
Turning to “CACGCCTCATGGACCGGTTTTCCCGGTAATCCGTATTTGCC (site CACCCCTCTGG)”, the “recombinant UMI read abundance (log10)” value was found to be 1.65.

For the origin of these results see the supplement of paper PMC11208160.
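Note: IS621 bridge recombinase in Escherichia coli cells against a fixed T5 target plasmid.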
